According to ChEMBL document CHEMBL1201862, “PubChem BioAssay data set” (2004):
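Compound exposure: 48 hours, 5 concentrations, 96-well plates. GI50 = concentration required for 50% inhibition of growth.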 Activity calls are given as the source filed them. No stated cut-off is given here; in the data, active = GI50 up to about 1.1 µM and inactive = higher.

Key:
Assay in all cases: NCI anticancer screen, dose series, 48 h
A549 = tested on: A549
ACHN = tested on: ACHN
BT-549 = tested on: BT-549
CAKI-1 = tested on: CAKI-1
CCRF-CEM = tested on: CCRF-CEM
COLO 205 = tested on: COLO 205
DU-145 = tested on: DU-145
EKVX = tested on: EKVX
HCC 2998 = tested on: HCC 2998
HCT-15 = tested on: HCT-15
HL-60 = tested on: HL-60
HOP-62 = tested on: HOP-62
Hs-578T = tested on: Hs-578T
IGROV-1 = tested on: IGROV-1
LOX IMVI = tested on: LOX IMVI
M14 = tested on: M14
MDA-MB-231 = tested on: MDA-MB-231
MOLT-4 = tested on: MOLT-4
Malme-3M = tested on: Malme-3M
NCI-H23 = tested on: NCI-H23
NCI-H460 = tested on: NCI-H460
NCI-H522 = tested on: NCI-H522
NCI/ADR-RES = tested on: NCI/ADR-RES
OVCAR-4 = tested on: OVCAR-4
OVCAR-5 = tested on: OVCAR-5
OVCAR-8 = tested on: OVCAR-8
RPMI-8226 = tested on: RPMI-8226
RXF 393 = tested on: RXF 393
SF-295 = tested on: SF-295
SK-MEL-28 = tested on: SK-MEL-28
SK-MEL-5 = tested on: SK-MEL-5
SK-OV-3 = tested on: SK-OV-3
SNB-75 = tested on: SNB-75
SW-620 = tested on: SW-620
TK-10 = tested on: TK-10
UO-31 = tested on: UO-31
786-0 = tested on: 786-0
A498 = tested on: A498
HCT-116 = tested on: HCT-116
HOP-92 = tested on: HOP-92
HT-29 = tested on: HT-29
K562 = tested on: K562
KM12 = tested on: KM12
MCF7 = tested on: MCF7
MDA-MB-435 = tested on: MDA-MB-435
MDA-N = tested on: MDA-N
NCI-H226 = tested on: NCI-H226
OVCAR-3 = tested on: OVCAR-3
PC-3 = tested on: PC-3
SF-268 = tested on: SF-268
SF-539 = tested on: SF-539
SK-MEL-2 = tested on: SK-MEL-2
SN12C = tested on: SN12C
SNB-19 = tested on: SNB-19
SR = tested on: SR
T47D = tested on: T47D
U-251 = tested on: U-251
UACC-257 = tested on: UACC-257
UACC-62 = tested on: UACC-62

Cc1cn(S(=O)(=O)c2ccccc2)c2c(OCc3ccccc3)cc(NC(=O)c3cc4cc([N+](=O)[O-])ccc4s3)cc12
GI50 (A549): > 100 µM (inactive)
GI50 (ACHN): > 100 µM (inactive)
GI50 (BT-549): > 100 µM (inactive)
GI50 (CAKI-1): > 100 µM (inactive)
GI50 (CCRF-CEM): 38.9 µM (inactive)
GI50 (COLO 205): > 100 µM (inactive)
GI50 (DU-145): > 100 µM (inactive)
GI50 (EKVX): > 100 µM (inactive)
GI50 (HCC 2998): > 100 µM (inactive)
GI50 (HCT-15): > 100 µM
GI50 (HL-60): 91 µM (inactive)
GI50 (HOP-62): > 100 µM (inactive)
GI50 (Hs-578T): > 100 µM (inactive)
GI50 (IGROV-1): > 100 µM (inactive)
GI50 (LOX IMVI): > 100 µM (inactive)
GI50 (M14): 37.8 µM (inactive)
GI50 (MDA-MB-231): 49.1 µM (inactive)
GI50 (MOLT-4): 59.6 µM (inactive)
GI50 (Malme-3M): 89.7 µM (inactive)
GI50 (NCI-H23): > 100 µM (inactive)
GI50 (NCI-H460): > 100 µM (inactive)
GI50 (NCI-H522): > 100 µM (inactive)
GI50 (NCI/ADR-RES): > 100 µM (inactive)
GI50 (OVCAR-4): > 100 µM (inactive)
GI50 (OVCAR-5): > 100 µM (inactive)
GI50 (OVCAR-8): > 100 µM (inactive)
GI50 (RPMI-8226): > 100 µM (inactive)
GI50 (RXF 393): > 100 µM (inactive)
GI50 (SF-295): 58.7 µM (inactive)
GI50 (SK-MEL-28): > 100 µM (inactive)
GI50 (SK-MEL-5): > 100 µM (inactive)
GI50 (SK-OV-3): > 100 µM (inactive)
GI50 (SNB-75): 68.9 µM (inactive)
GI50 (SW-620): > 100 µM (inactive)
GI50 (TK-10): > 100 µM (inactive)
GI50 (UO-31): > 100 µM (inactive)

O=c1[nH]c(=O)n(C2OC(CO)C(O)C2O)c2c1CCCC2 (stereo unspecified)
GI50 (786-0): > 100 µM (inactive)
GI50 (A498): > 100 µM (inactive)
GI50 (A549): > 100 µM (inactive)
GI50 (ACHN): > 100 µM (inactive)
GI50 (CAKI-1): > 100 µM (inactive)
GI50 (CCRF-CEM): > 100 µM (inactive)
GI50 (COLO 205): > 100 µM (inactive)
GI50 (DU-145): > 100 µM (inactive)
GI50 (EKVX): > 100 µM (inactive)
GI50 (HCC 2998): > 100 µM (inactive)
GI50 (HCT-116): > 100 µM (inactive)
GI50 (HCT-15): > 100 µM
GI50 (HL-60): > 100 µM (inactive)
GI50 (HOP-62): > 100 µM (inactive)
GI50 (HOP-92): > 100 µM (inactive)
GI50 (HT-29): > 100 µM (inactive)
GI50 (Hs-578T): > 100 µM (inactive)
GI50 (IGROV-1): > 100 µM (inactive)
GI50 (K562): > 100 µM (inactive)
GI50 (KM12): > 100 µM (inactive)
GI50 (LOX IMVI): > 100 µM (inactive)
GI50 (M14): > 100 µM (inactive)
GI50 (MCF7): > 100 µM (inactive)
GI50 (MDA-MB-231): > 100 µM (inactive)
GI50 (MDA-MB-435): > 100 µM (inactive)
GI50 (MDA-N): > 100 µM (inactive)
GI50 (MOLT-4): > 100 µM (inactive)
GI50 (Malme-3M): > 100 µM (inactive)
GI50 (NCI-H226): > 100 µM (inactive)
GI50 (NCI-H23): > 100 µM (inactive)
GI50 (NCI-H460): > 100 µM (inactive)
GI50 (NCI-H522): > 100 µM (inactive)
GI50 (NCI/ADR-RES): > 100 µM (inactive)
GI50 (OVCAR-3): > 100 µM (inactive)
GI50 (OVCAR-4): > 100 µM (inactive)
GI50 (OVCAR-5): > 100 µM (inactive)
GI50 (OVCAR-8): > 100 µM (inactive)
GI50 (PC-3): > 100 µM (inactive)
GI50 (RPMI-8226): > 100 µM (inactive)
GI50 (RXF 393): > 100 µM (inactive)
GI50 (SF-268): > 100 µM (inactive)
GI50 (SF-295): > 100 µM (inactive)
GI50 (SF-539): > 100 µM (inactive)
GI50 (SK-MEL-28): > 100 µM (inactive)
GI50 (SK-MEL-2): > 100 µM (inactive)
GI50 (SK-MEL-5): > 100 µM (inactive)
GI50 (SK-OV-3): > 100 µM (inactive)
GI50 (SN12C): > 100 µM (inactive)
GI50 (SNB-19): > 100 µM (inactive)
GI50 (SNB-75): > 100 µM (inactive)
GI50 (SR): > 100 µM (inactive)
GI50 (SW-620): > 100 µM (inactive)
GI50 (T47D): > 100 µM (inactive)
GI50 (TK-10): > 100 µM (inactive)
GI50 (U-251): > 100 µM (inactive)
GI50 (UACC-257): > 100 µM (inactive)
GI50 (UACC-62): > 100 µM (inactive)
GI50 (UO-31): > 100 µM (inactive)

COc1ccc(-c2cc(-c3ccc(Nc4ccnc5cc(Cl)ccc45)cc3)nc(N)c2C#N)cc1
GI50 (786-0): > 100 µM (inactive)
GI50 (A498): > 100 µM (inactive)
GI50 (A549): > 100 µM (inactive)
GI50 (ACHN): > 100 µM (inactive)
GI50 (BT-549): > 100 µM (inactive)
GI50 (CAKI-1): > 100 µM (inactive)
GI50 (COLO 205): > 100 µM (inactive)
GI50 (DU-145): > 100 µM (inactive)
GI50 (EKVX): > 100 µM (inactive)
GI50 (HCC 2998): > 100 µM (inactive)
GI50 (HCT-116): > 100 µM (inactive)
GI50 (HCT-15): > 100 µM
GI50 (HL-60): > 100 µM (inactive)
GI50 (HOP-62): > 100 µM (inactive)
GI50 (HOP-92): > 100 µM (inactive)
GI50 (IGROV-1): > 100 µM (inactive)
GI50 (K562): > 100 µM (inactive)
GI50 (KM12): > 100 µM (inactive)
GI50 (LOX IMVI): > 100 µM (inactive)
GI50 (M14): > 100 µM (inactive)
GI50 (MCF7): > 100 µM (inactive)
GI50 (MDA-MB-231): > 100 µM (inactive)
GI50 (MDA-MB-435): > 100 µM (inactive)
GI50 (MOLT-4): > 100 µM (inactive)
GI50 (Malme-3M): > 100 µM (inactive)
GI50 (NCI-H226): > 100 µM (inactive)
GI50 (NCI-H23): > 100 µM (inactive)
GI50 (NCI-H460): > 100 µM (inactive)
GI50 (NCI-H522): > 100 µM (inactive)
GI50 (NCI/ADR-RES): > 100 µM (inactive)
GI50 (OVCAR-3): > 100 µM (inactive)
GI50 (OVCAR-4): > 100 µM (inactive)
GI50 (OVCAR-5): > 100 µM (inactive)
GI50 (OVCAR-8): > 100 µM (inactive)
GI50 (PC-3): > 100 µM (inactive)
GI50 (RPMI-8226): > 100 µM (inactive)
GI50 (RXF 393): > 100 µM (inactive)
GI50 (SF-268): > 100 µM (inactive)
GI50 (SF-295): > 100 µM (inactive)
GI50 (SF-539): > 100 µM (inactive)
GI50 (SK-MEL-28): > 100 µM (inactive)
GI50 (SK-MEL-2): > 100 µM (inactive)
GI50 (SK-OV-3): > 100 µM (inactive)
GI50 (SNB-19): > 100 µM (inactive)
GI50 (SNB-75): > 100 µM (inactive)
GI50 (SR): > 100 µM (inactive)
GI50 (SW-620): > 100 µM (inactive)
GI50 (T47D): > 100 µM (inactive)
GI50 (TK-10): > 100 µM (inactive)
GI50 (U-251): > 100 µM (inactive)
GI50 (UACC-62): > 100 µM (inactive)
GI50 (UO-31): 27.4 µM (inactive)
